From USRE42890E1, “Furazanobenzimidazoles” (Basilea Pharmaceutica AG, priority 2003, dated 2011)
Where two headings read alike, the source gives them in different places.

Key:
HT1080 = assay: MTS proliferation assay, HT1080; format: cell-based, human; details: HT1080, 72 h incubation, read-out: MTS proliferation assay IC 50 HT1080
Method in brief: (§1)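 A 72 h exposure to compound (final 0.3–10 μM, four levels) was followed by 3 h MTS incubation and an A492 read.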

[1] = tested on: adherent cells or suspension cells; assay: Hoechst 33342 nuclear staining (fraction of apoptotic nuclei); format: cell-based; parameters: key: 0 relating to no activity; 1 relating to weak activity comprising less than 70% of the cells; score 2 relating to strong activity comprising more than 70% of the cells
MRC5 = assay: MTS proliferation assay, MRC5; format: cell-based; details: MRC5, 72 h incubation, read-out: MTS proliferation assay IC 50 MRC5
Method in brief: (§2)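 Proliferation is followed by MTS conversion, measured as absorbance at 492 nm. Cells are exposed for 72 h to four fixed compound concentrations (10 μM down to 0.3 μM) under 37° C, 7.5% CO2 culture conditions.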

HeLa = assay: MTS proliferation assay, HeLa; format: cell-based, human; details: 72 h incubation, read-out: MTS proliferation assay IC 50 HeLa
Method in brief: as §1

Jurkat = assay: MTS proliferation assay, Jurkat; format: cell-based, human; details: 72 h incubation, read-out: MTS proliferation assay IC 50 Jurkat
Method in brief: as §1

Jily = assay: MTS proliferation assay, Jily; format: cell-based; details: 72 h incubation, read-out: MTS proliferation assay IC 50 Jily
Method in brief: as §2

With COc1cc(C(=O)Cn2c(-c3nonc3N)nc3ccccc32)ccc1O [Example 74, 4-[1-(3-Methoxy-4-hydroxyphenacyl)-1H-benzimidazol-2-yl]-furazan-3-yl-amine] the IC50 (HT1080; Homo sapiens, HT-1080) was 0.1 to 1 µM, the “Hoechst 33342 nuclear staining score” value ([1]; H460, conc 0.01 μm) was 0 and the “Hoechst 33342 nuclear staining score” value ([1]; H460, conc 0.1 μm) was 0. The “Hoechst 33342 nuclear staining score” value ([1]; H460, conc 1 μm) was 2 (score 2 relating to strong activity comprising more than 70% of the cells), the “Hoechst 33342 nuclear staining score” value ([1]; HeLa, conc 0.01 μm) was 0 and the “Hoechst 33342 nuclear staining score” value ([1]; HeLa, conc 0.1 μm) was 0. The “Hoechst 33342 nuclear staining score” value ([1]; HeLa, conc 1 μm) was 2 (score 2 relating to strong activity comprising more than 70% of the cells), the “Hoechst 33342 nuclear staining score” value ([1]; Jily, conc 0.01 μm) was 0 and the “Hoechst 33342 nuclear staining score” value ([1]; Jily, conc 0.1 μm) was 0. The “Hoechst 33342 nuclear staining score” value ([1]; Jily, conc 1 μm) was 2 (score 2 relating to strong activity comprising more than 70% of the cells), the “Hoechst 33342 nuclear staining score” value ([1]; Jurkat, conc 0.01 μm) was 0 and the “Hoechst 33342 nuclear staining score” value ([1]; Jurkat, conc 0.1 μm) was 0. For the same compound, the “Hoechst 33342 nuclear staining score” value ([1]; Jurkat, conc 1 μm) was 2 (score 2 relating to strong activity comprising more than 70% of the cells), the “Hoechst 33342 nuclear staining score” value ([1]; MRC5, conc 0.01 μm) was 0 and the “Hoechst 33342 nuclear staining score” value ([1]; MRC5, conc 0.1 μm) was 0. For the same compound, the “Hoechst 33342 nuclear staining score” value ([1]; MRC5, conc 1 μm) was 1 (1 relating to weak activity comprising less than 70% of the cells), the “Hoechst 33342 nuclear staining score” value ([1]; PBLs, conc 0.01 μm) was 0 and the “Hoechst 33342 nuclear staining score” value ([1]; PBLs, conc 0.1 μm) was 0. The “Hoechst 33342 nuclear staining score” value ([1]; PBLs, conc 1 μm) was 0, the IC50 (MRC5; Homo sapiens) was 0.1 to 1 µM and the IC50 (HeLa; Homo sapiens) was 0.1 to 1 µM. For the same compound, the IC50 (Jurkat; Homo sapiens) was 0.1 to 1 µM and the IC50 (Jily) was 0.1 to 1 µM.
In the case of CC(=O)Nc1ccc(C(=O)Cn2c(-c3nonc3N)nc3ccccc32)cc1 [Example 60], the IC50 (HT1080) is reported as 0.1 to 1 µM, the “Hoechst 33342 nuclear staining score” value ([1]; H460, conc 0.01 μm) is reported as 0 and the “Hoechst 33342 nuclear staining score” value ([1]; H460, conc 0.1 μm) is reported as 0. For the same compound, the “Hoechst 33342 nuclear staining score” value ([1]; H460, conc 1 μm) was 0, the “Hoechst 33342 nuclear staining score” value ([1]; HeLa, conc 0.01 μm) was 0 and the “Hoechst 33342 nuclear staining score” value ([1]; HeLa, conc 0.1 μm) was 0. For the same compound, the “Hoechst 33342 nuclear staining score” value ([1]; HeLa, conc 1 μm) was 1 (1 relating to weak activity comprising less than 70% of the cells), the “Hoechst 33342 nuclear staining score” value ([1]; Jily, conc 0.01 μm) was 0 and the “Hoechst 33342 nuclear staining score” value ([1]; Jily, conc 0.1 μm) was 0. The “Hoechst 33342 nuclear staining score” value ([1]; Jily, conc 1 μm) was 2 (score 2 relating to strong activity comprising more than 70% of the cells), the “Hoechst 33342 nuclear staining score” value ([1]; Jurkat, conc 0.01 μm) was 0 and the “Hoechst 33342 nuclear staining score” value ([1]; Jurkat, conc 0.1 μm) was 0. The “Hoechst 33342 nuclear staining score” value ([1]; Jurkat, conc 1 μm) was 2 (score 2 relating to strong activity comprising more than 70% of the cells), the “Hoechst 33342 nuclear staining score” value ([1]; MRC5, conc 0.01 μm) was 0 and the “Hoechst 33342 nuclear staining score” value ([1]; MRC5, conc 0.1 μm) was 0. For the same compound, the “Hoechst 33342 nuclear staining score” value ([1]; MRC5, conc 1 μm) was 2 (score 2 relating to strong activity comprising more than 70% of the cells), the “Hoechst 33342 nuclear staining score” value ([1]; PBLs, conc 0.01 μm) was 0 and the “Hoechst 33342 nuclear staining score” value ([1]; PBLs, conc 0.1 μm) was 0. For the same compound, the “Hoechst 33342 nuclear staining score” value ([1]; PBLs, conc 1 μm) was 0, the IC50 (MRC5) was 0.1 to 1 µM and the IC50 (HeLa) was 0.1 to 1 µM. It also gave an IC50 (Jurkat) of 0.1 to 1 µM and an IC50 (Jily) of 0.1 to 1 µM.
In the case of Nc1nonc1-c1nc2ccccc2n1CC1CC1 [B, reference compound], the IC50 (HT1080) is reported as greater than 1 µM, the “Hoechst 33342 nuclear staining score” value ([1]; H460, conc 3 μm) is reported as 0 and the “Hoechst 33342 nuclear staining score” value ([1]; H460, conc 10 μm) is reported as 0. For the same compound, the “Hoechst 33342 nuclear staining score” value ([1]; H460, conc 30 μm) was 0, the “Hoechst 33342 nuclear staining score” value ([1]; HeLa, conc 3 μm) was 0 and the “Hoechst 33342 nuclear staining score” value ([1]; HeLa, conc 10 μm) was 0. For the same compound, the “Hoechst 33342 nuclear staining score” value ([1]; HeLa, conc 30 μm) was 0, the “Hoechst 33342 nuclear staining score” value ([1]; Jily, conc 3 μm) was 0 and the “Hoechst 33342 nuclear staining score” value ([1]; Jily, conc 10 μm) was 0. The “Hoechst 33342 nuclear staining score” value ([1]; Jily, conc 30 μm) was 0, the “Hoechst 33342 nuclear staining score” value ([1]; Jurkat, conc 3 μm) was 0 and the “Hoechst 33342 nuclear staining score” value ([1]; Jurkat, conc 10 μm) was 0. The “Hoechst 33342 nuclear staining score” value ([1]; Jurkat, conc 30 μm) was 0, the “Hoechst 33342 nuclear staining score” value ([1]; MRC5, conc 3 μm) was 0 and the “Hoechst 33342 nuclear staining score” value ([1]; MRC5, conc 10 μm) was 0. The “Hoechst 33342 nuclear staining score” value ([1]; MRC5, conc 30 μm) was 0, the “Hoechst 33342 nuclear staining score” value ([1]; PBLs, conc 3 μm) was 0 and the “Hoechst 33342 nuclear staining score” value ([1]; PBLs, conc 10 μm) was 0. The “Hoechst 33342 nuclear staining score” value ([1]; PBLs, conc 30 μm) was 0, the IC50 (MRC5) was greater than 1 µM and the IC50 (HeLa) was greater than 1 µM. It also gave an IC50 (Jurkat) greater than 1 µM and an IC50 (Jily) greater than 1 µM.
